Test results taken from US4975434A, “Antiviral and anticancer cyclopentenyl cytosine” (priority 1989, dated 1990).
In brackets after ≈: the same amount, converted by molar mass. Several values for one entry are separate records, joined by “and”; a condition that tells them apart may be missing. Equal values may be shown once. Entries after “also recorded” stand apart in the source; their conditions may differ.

Legend:
[1] = test system: Herpes simplex type 1 (TK-), strain HF; assay: microbe, parasite or virus in culture; assay type: cell-based
[2] = test system: Influenza (Hong Kong), strain A2 /Aichi/2/68; assay: microbe, parasite or virus in culture; assay type: cell-based, Influenza virus; host MDCK (Madin Darby canine kidney cells)
[3] = test system: Vaccinia, strain Lederle CA; assay: microbe, parasite or virus in culture; assay type: cell-based
[4] = test system: Vesicular Stomatitis virus, strain Indiana; assay type: cell-based
L1210 leukemia = assay: In vivo antitumor test, L1210 leukemia in mice; details: for Number of 60 day survivors per test group: QD1-9
[5] = test system: Herpes simplex type 1 (TK+), strain E-377; assay: Cytopathogenic inhibition test, HSV-1 TK+; assay type: cell-based
[6] = test system: MRC5 (diploid human embryonic lung cells); assay: Toxicity to MRC5 host cells (gross cell morphology) in the CMV assay
A549 Lung = assay: Human tumor xenograft in athymic mice, A549 lung (subrenal capsule)
[7] = test system: Varicella-Zoster virus, isolate DM625; assay: Varicella-Zoster Virus (VZV) Plaque Reduction Assay; assay type: cell-based
M5076 sarcoma = assay: In vivo antitumor test, M5076 sarcoma in mice
[8] = test system: Cytomegalovirus, strain AD 169; assay: Cytomegalovirus (CMV) Yield Reduction Assay; assay type: cell-based
CTP levels = CTP levels in normal and tumor tissue of L1210 bearing mice; assay type: in vivo, mouse; details: normal vs tumor tissue of L1210 bearing mice
[9] = test system: Punta Toro virus, strain Adames; assay: microbe, parasite or virus in culture; assay type: cell-based, Punta Toro virus; host Vero cells
[10] = test system: malignant human promyelocytic leukemia cell line, HL-60; assay: Growth inhibition and differentiation of HL-60 cells (nitroblue tetrazolium reduction); assay type: cell-based
Rift Valley Fever virus = details: USAMRIID, Fort Detrick
L1210/ara-C Leukemia = assay: In vivo antitumor test, ara-C resistant L1210 leukemia in mice; details: for Number of 60 day survivors per test group / % ILS: Table IV; for Number of 60 day survivors per test group: QD1-9; for % ILS: QD1-9, terminated day 60; for activity against ara-C resistant tumor: result in words
CTP pools = assay: Nucleotide (CTP, UTP, ATP, GTP) levels in treated cells (HL-60); assay type: cell-based, human
P388 leukemia = assay: In vivo antitumor test, P388 leukemia in mice
MX-1 Mammary = assay: Human tumor xenograft in athymic mice, MX-1 mammary (subrenal capsule); details: for % Tumor Inhibition: day 0 to 11; for % tumor weight inhibition: Table IV, QD1-9, day 0 to day 11
[11] = IP L1210, IP treatment daily days 1-9, optimum dose 1 mg/kg/inj (Table I)
[12] = IP L1210, IP treatment every 4th day, days 1, 5, 9, optimum dose 4 mg/kg/inj
[13] = IP L1210, IP treatment every 3 hr x 8, days 1, 5, 9, optimum dose 0.5 mg/kg/inj
[14] = Table II Experiment 1, tumor IP, IP QD1-9, OD 1.0 mg/kg/injection
[15] = Table II Experiment 1, tumor IP, oral drug administration, OD 2.25 mg/kg/injection
[16] = Table II Experiment 2, tumor IP, IP QD1-9, OD 1.0 mg/kg/injection
[17] = Table II Experiment 2, tumor IP, oral drug administration, OD 2.25 mg/kg/injection
[18] = Table II Experiment 2, tumor SC, IP QD1-9, OD 1.0 mg/kg/injection
[19] = Table II Experiment 1, tumor IP, IP QD1-13, OD 0.5 mg/kg/injection
[20] = Table II Experiment 2, tumor IP, IP QD1-9, OD 1.5 mg/kg/injection

Nc1ccn([C@@H]2C=C(CO)[C@@H](O)[C@H]2O)c(=O)n1 [CPE-C]
VR (virus rating) ([1]; Vero cells, strain HF, two determinations): 3.8 and 2.7 | antiviral activity ([1]; result in words): greater than arabinosyl adenine (ara-A); also recorded: Potent activity | VR (virus rating) [2]: 2.4 | antiviral activity [2]: Good activity; also recorded: Virus ratings greater than two | IC50 ([2]; MDCK, in Canis lupus familiaris, read-out: ID50): 18.2 mg/L (≈ 76.1 µM) | potency relative to ara-A [3]: about 100 times | IC50 ([3]; Orthopoxvirus vaccinia, Vero, in Chlorocebus sabaeus, read-out: ID50): 0.1 mg/L (≈ 0.418 µM) | VR (virus rating) ([3]; Vero cells, strain Lederle CA): 4.6 | antiviral activity ([3]; result in words): very sensitive to CPE-C; also recorded: Potent activity | VR (virus rating) ([4]; L929 cells, strain Indiana, two determinations): 2.4 and 3.0 | TI (therapeutic index) ([4]; minimum toxic drug concentration / ID50, L929 cells): 0.6 and 0.4 | antiviral activity ([4]; result in words): Good activity; also recorded: Virus ratings greater than two | long term survivors (L1210 leukemia; IP 1.0 mg/kg, QD 1-9, 30-day, 1.5 mg/kg): Multiple 30-day survivors; also recorded: multiple long term survivors | ILS (median percent increase in life span) (L1210 leukemia; [11]): 124% | LCK (approximate log cell kill at the end of treatment) (L1210 leukemia; [11]): 3.0 log | ILS (median percent increase in life span) (L1210 leukemia; [12]): 91% | LCK (approximate log cell kill at the end of treatment) (L1210 leukemia; [12]): 0.1 log | ILS (median percent increase in life span) (L1210 leukemia; [13]): 116% | LCK (approximate log cell kill at the end of treatment) (L1210 leukemia; [13]): 1.5 log | schedule dependency (L1210 leukemia; QD 1-9, Q4D, Q3Hx8): no significant schedule dependency | % ILS (L1210 leukemia; Table II Experiment 1, tumor IC (intracerebral), IP QD1-9, OD 1.5 mg/kg/injection): 45% | % ILS (L1210 leukemia; [14]): 212% | LCK (L1210 leukemia; [14]): > 6.0 log | Number of 30 day survivors out of six mice (L1210 leukemia; [14]): 4 | % ILS (L1210 leukemia; [15]): 125% | LCK (L1210 leukemia; [15]): 1.9 log | % ILS (L1210 leukemia; Table II Experiment 1, tumor SC, IP QD1-9, OD 1.5 mg/kg/injection): 109% | % ILS (L1210 leukemia; Table II Experiment 2, tumor IC (intracerebral), IP QD1-9, OD 1.0 mg/kg/injection): 42% | % ILS (L1210 leukemia; [16]): 201% | LCK (L1210 leukemia; [16]): > 5.8 log | Number of 30 day survivors out of six mice (L1210 leukemia; [16]): 2 | % ILS (L1210 leukemia; [17]): 57% | LCK (L1210 leukemia; [17]): -2.2 log | % ILS (L1210 leukemia; [18]): 83% | Number of 30 day survivors out of six mice (L1210 leukemia; [18]): 1 | Number of 60 day survivors per test group (L1210 leukemia; Table IV, CPE-C 1.0 mg/kg): 1/10 | % ILS (L1210 leukemia; Table IV, CPE-C 1.0 mg/kg, QD1-9, terminated day 60): 116% | Number of 60 day survivors per test group (L1210 leukemia; Table IV, CPE-C 1.5 mg/kg): 2/9 | % ILS (L1210 leukemia; Table IV, CPE-C 1.5 mg/kg, QD1-9, terminated day 60): 171% | % ILS (L1210 leukemia; Table IV, CPE-C 2.25 mg/kg, QD1-9, terminated day 60): 146% | potency relative to carbodine, in vivo antitumor (L1210 leukemia; in vivo antitumor experiments): A similar potency difference | activity and potency relative to carbodine (L1210 leukemia; initial in vivo tests): significantly greater levels of activity and potency than carbodine | ILS (L1210 leukemia; intracerebral L1210, text): about 40% | activity, head to head comparison with 3DU (L1210 leukemia; standard L1210 leukemia): significantly better | IC50 ([5]; Human alphaherpesvirus 1, Vero cells, strain E-377, inhibition of virus-induced cytopathogenic effects, read-out: ID50 (the source's name)): 0.3 mg/L (≈ 1.25 µM) | VR (virus rating) ([5]; Vero cells, strain E-377): 3.8 | antiviral activity ([5]; result in words): greater than arabinosyl adenine (ara-A); also recorded: Potent activity | Host cell toxicity (gross cell morphology) ([6]; 320 μg/ml): Slightly toxic | Host cell toxicity (gross cell morphology) ([6]; each of 100, 32, 10, 3.2 and 1.0 μg/ml): Very slightly toxic | growth inhibition (A549 Lung): 100% | Toxicity: weight loss and deaths (A549 Lung; A549 experiments 1 and 2, 1.5 and 2.0 mg/kg/injection, each group of six mice): weight loss and one or two deaths | % Tumor Inhibition (negative value denotes tumor regression) (A549 Lung; Table III Experiment 1, SRC, IP QD1-9, OD 1.5 mg/kg/injection, day 0 to 11): -59% | % Tumor Inhibition (A549 Lung; Table III Experiment 2, SRC, IP QD1-9, OD 2.0 mg/kg/injection, day 0 to 11): 92% | inhibition at 0.01 µg/mL ([7]; Human alphaherpesvirus 3, 144 h, 0.01 μg/ml, Huf cells): 0% | inhibition at 0.032 µg/mL ([7]; Human alphaherpesvirus 3, 144 h, 0.032 μg/ml, Huf cells): 3% | inhibition at 0.1 µg/mL ([7]; Human alphaherpesvirus 3, 144 h, 0.1 μg/ml, Huf cells): 21% | inhibition at 0.32 µg/mL ([7]; Human alphaherpesvirus 3, 144 h, 0.32 μg/ml, Huf cells): 33% | inhibition at 1 µg/mL ([7]; Human alphaherpesvirus 3, 144 h, 1.0 μg/ml, Huf cells): 36% | inhibition at 3.2 µg/mL ([7]; Human alphaherpesvirus 3, 144 h, 3.2 μg/ml, Huf cells): 33% | inhibition at 10 µg/mL ([7]; Human alphaherpesvirus 3, 144 h, 10 μg/ml, Huf cells): 33% | inhibition at 100 µg/mL ([7]; Human alphaherpesvirus 3, 144 h, 100 μg/ml, Huf cells): 41% | inhibition at 320 µg/mL ([7]; Human alphaherpesvirus 3, 144 h, 320 μg/ml, Huf cells): 36% | antiviral activity ([7]; result in words): Potent activity; also recorded: Activity was observed for both compounds | % ILS (M5076 sarcoma; [19]): 5% | LCK (M5076 sarcoma; [19]): -2.0 log | activity (M5076 sarcoma; result in words): inactive | log reduction at 0.1 µg/mL ([8]; Human betaherpesvirus 5, 144 h, 0.1 μg/ml, MRC5 cells, read-out: Reduction in Virus Yield): 0.8 | log reduction at 0.32 µg/mL ([8]; Human betaherpesvirus 5, 144 h, 0.32 μg/ml, MRC5 cells, read-out: Reduction in Virus Yield): 1.3 | log reduction at 1 µg/mL ([8]; Human betaherpesvirus 5, 144 h, 1.0 μg/ml, MRC5 cells, read-out: Reduction in Virus Yield): 1.4 | log reduction at 3.2 µg/mL ([8]; Human betaherpesvirus 5, 144 h, 3.2 μg/ml, MRC5 cells, read-out: Reduction in Virus Yield): 1.5 | log reduction at 10 µg/mL ([8]; Human betaherpesvirus 5, 144 h, 10 μg/ml, MRC5 cells, read-out: Reduction in Virus Yield): 1.9 | log reduction at 32 µg/mL ([8]; Human betaherpesvirus 5, 144 h, 32 μg/ml, MRC5 cells, read-out: Reduction in Virus Yield): 2 | log reduction at 100 µg/mL ([8]; Human betaherpesvirus 5, 144 h, 100 μg/ml, MRC5 cells, read-out: Reduction in Virus Yield): 2 | log reduction at 320 µg/mL ([8]; Human betaherpesvirus 5, 144 h, 320 μg/ml, MRC5 cells, read-out: Reduction in Virus Yield): 5.3 | antiviral activity ([8]; result in words): Potent activity; also recorded: Activity was observed for both compounds | tissue specificity of CTP reduction (CTP levels): some tissuespecificity towards the tumor | VR (virus rating) [9]: 1.5 | IC50 ([9]; Punta Toro virus, Vero, read-out: ID50): 1.01 mg/L (≈ 4.22 µM) | TI (therapeutic index) ([9]; minimum toxic drug concentration / ID50, Vero cells): 0.3 | antiviral activity ([9]; result in words): Good activity; also recorded: Virus ratings greater than two | inhibition of cell growth ([10]; continuous exposure for 5 days to 10^-8 to 10^-6 M): progressive inhibition of cell growth | differentiation ([10]; continuous exposure for 5 days to 10^-8 to 10^-6 M, general statement): differentiation to a non-malignant phenotype | cell population that reduced nitroblue tetrazolium ([10]; four days after exposure to 10^-7 M): 95% | antiviral activity (Rift Valley Fever virus): particularly active | Number of 60 day survivors per test group (L1210/ara-C Leukemia; CPE-C 1.0 mg/kg): 6/10 | % ILS (L1210/ara-C Leukemia; CPE-C 1.0 mg/kg): > 650% | Number of 60 day survivors per test group (L1210/ara-C Leukemia; CPE-C 1.5 mg/kg): 5/9 | % ILS (L1210/ara-C Leukemia; CPE-C 1.5 mg/kg): > 650% | Number of 60 day survivors per test group (L1210/ara-C Leukemia; CPE-C 2.25 mg/kg): 6/10 | % ILS (L1210/ara-C Leukemia; CPE-C 2.25 mg/kg): > 650% | activity against ara-C resistant tumor (L1210/ara-C Leukemia): producing multiple cures against the resistant tumor; also recorded: collaterally sensitive | activity against ara-C resistant tumor (L1210/ara-C Leukemia; listed as cyclopentenyl cytosine): significant antitumor activity | CTP levels following drug removal (CTP pools; HL-60): sustained reduction in CTP levels | level of CTP (CTP pools; during CPE-C treatment): rapid and pronounced inhibition | half-life for the disappearance of CTP (CTP pools; during CPE-C treatment, HL-60): 1.5 to 2 h | level of UTP, ATP or GTP (CTP pools; during CPE-C treatment, HL-60): not of UTP, ATP or GTP | level of CTP pools (CTP pools; treated cells): near total abrogation of CTP pools | % ILS (P388 leukemia; [14]): 88% | LCK (P388 leukemia; [14]): 0.9 log | % ILS (P388 leukemia; [20]): 69% | LCK (P388 leukemia; [20]): 0.1 log | activity (P388 leukemia; result in words): only modest activity | growth inhibition (MX-1 Mammary): 100% | potency relative to 3DU (MX-1 Mammary; MX-1 xenograft): about 100 times | % Tumor Inhibition (MX-1 Mammary; Table III Experiment 1, SRC, IP QD1-9, OD 1.5 mg/kg/injection): 100% | % Tumor Inhibition (MX-1 Mammary; Table III Experiment 2, SRC, IP QD1-9, OD 2.25 mg/kg/injection): 95% | % tumor weight inhibition (MX-1 Mammary; CPE-C 1.5 mg/kg): 94% | % tumor weight inhibition (MX-1 Mammary; CPE-C 2.25 mg/kg): 100% | activity (MX-1 Mammary; result in words): complete inhibition of tumor growth
